# Measurements as given in patent US20070128235A1, “Juvenile hormone transmethylase genes and method of using the same” (Inc. Admin Agency Natl Agr and Bio-oriented Research Org, priority 2003, published 2007).
# Columns and labels:
# [1] = biological target: T1, recombinant Drosophila melanogaster JHAMT (Drosophila melanogaster, UniProt Q9VJK8, F166Y/S182N); test: Molecular activity of recombinant Drosophila melanogaster juvenile hormone acid methyltransferase; format: biochemical; conditions: Tris-HCL 50 mM, pH 7.5; 25° C.; 1 mM S-adenosyl methionine and 100 μM of each JH acid; mean±standard deviation, n=3
# T1 construct: to amplify the coding region of the juvenile hormone acid methyltransferase gene from Drosophila melanogaster; made in house
# T1 sequence (Q9VJK8 whole entry F166Y/S182N): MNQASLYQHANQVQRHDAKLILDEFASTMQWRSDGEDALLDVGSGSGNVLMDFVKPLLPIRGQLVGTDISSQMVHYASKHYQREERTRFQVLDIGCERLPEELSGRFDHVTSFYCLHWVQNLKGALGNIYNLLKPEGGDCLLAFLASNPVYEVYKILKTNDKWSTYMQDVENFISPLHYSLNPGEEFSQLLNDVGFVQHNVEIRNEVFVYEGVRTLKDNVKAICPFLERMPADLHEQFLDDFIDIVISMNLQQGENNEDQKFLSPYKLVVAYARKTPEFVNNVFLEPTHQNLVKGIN
# Experimental: (§1) A reverse phase column (CAPCELL PAK C18 UG80 S-5, 3×150 mm, Shiseido) was attached to an HPLC apparatus (JASCO), and juvenile hormones were detected by measuring absorbance at 217 nm using an ultraviolet detector. Samples were flowed at a rate of 0.5 ml/min, at a column retention temperature of 40° C., for 20 minutes, in 60% acetonitrile or 80% acetonitrile.
# 100 μg of a juvenile hormone acid (either JH I acid, JH II acid, JH III acid, or farnesoic acid) dissolved in toluene was transferred into a silicone-treated glass test tube (10×150 mm) using a glass capillary, and the solvent was removed under a nitrogen stream. 800 μl of buffer (50 mM Tris-Cl, pH 7.5) and 100 μl of 10 mM S-adenosyl methionine solution were added thereto and mixed sufficiently, then left to stand in a 25° C. thermostat water bath for five minutes. 100 μl of the recombinant protein solution obtained by the method of Example 3 was added thereto to initiate enzyme reaction. After ten minutes, 250 μl of reaction termination solution (methanol:water:concentrated aqueous ammonia=10:9:1) was added to terminate the enzyme reaction 1 ml of isooctane was added and mixed sufficiently, then the mixture was centrifuged (2,000 rpm, 15 minutes, room temperature) to separate the organic solvent layer and the aqueous layer. […] The molecular activities of the recombinant Bombyx mori JHAMT against JH I acid, JH II acid, JH III acid, and farnesoic acid were determined in conditions where the buffer was Tris-HCL (50 mM, pH 7.5), the reaction temperature was 25° C., and the substrates were 1 mM of S-adenosyl methionine and 100 μM of each JH acid. […]
# cDNAs synthesized by reverse transcription of RNA extracted from a whole adult Drosophila melanogaster were used as a template for PCR using the DMJF primer (SEQ ID NO: 17) and DMJR primer (SEQ ID NO: 18) to amplify the coding region of the juvenile hormone acid methyltransferase gene from Drosophila melanogaster. […] The activity of the recombinant protein was determined by the same method as in Example 4, confirming that the protein encoded by the gene had juvenile hormone acid methyltransferase activity. The molecular activities of the recombinant Drosophila melanogaster JHAMT against JH I acid, JH II acid, JH III acid, and farnesoic acid were determined under conditions where the buffer was Tris-HCL (50 mM, pH 7.5), the reaction temperature was 25° C., and the substrates were 1 mM of S-adenosyl methionine and 100 μM of each JH acid. These activities were determined to be 2.67±0.44, 2.07±0.26, 1.76±0.13, and 2.3±0.51 (mean±standard deviation, n=3), respectively.
# [2] = system: recombinant Bombyx mori JHAMT; test: Juvenile hormone synthesis by recombinant juvenile hormone acid methyltransferase (enzyme reaction, reverse phase HPLC); format: biochemical; conditions: 25° C.; for production of the corresponding active juvenile hormone in the reaction solution: 100 μg substrate, S-adenosyl methionine, ten minutes, reverse phase HPLC (FIG. 4); for molecular activity (number of substrate molecules changed to reaction product by one molecule of the enzyme in one minute): Tris-HCL 50 mM, pH 7.5, 1 mM S-adenosyl methionine and 100 μM of each JH acid, mean±standard deviation, n=3
# Experimental: as §1
# 100 μg of a juvenile hormone acid (either JH I acid, JH II acid, JH III acid, or farnesoic acid) dissolved in toluene was transferred into a silicone-treated glass test tube (10×150 mm) using a glass capillary, and the solvent was removed under a nitrogen stream. 800 μl of buffer (50 mM Tris-Cl, pH 7.5) and 100 μl of 10 mM S-adenosyl methionine solution were added thereto and mixed sufficiently, then left to stand in a 25° C. thermostat water bath for five minutes. 100 μl of the recombinant protein solution obtained by the method of Example 3 was added thereto to initiate enzyme reaction. After ten minutes, 250 μl of reaction termination solution (methanol:water:concentrated aqueous ammonia=10:9:1) was added to terminate the enzyme reaction 1 ml of isooctane was added and mixed sufficiently, then the mixture was centrifuged (2,000 rpm, 15 minutes, room temperature) to separate the organic solvent layer and the aqueous layer. 100 μl of the organic solvent layer was transferred into a small vial using a glass capillary, and then the solvent was removed under a nitrogen stream to obtain a residue, which was dissolved in 100 μl of acetonitrile to analyze the synthesized juvenile hormone by a method using reverse phase HPLC. […] The molecular activities of the recombinant Bombyx mori JHAMT against JH I acid, JH II acid, JH III acid, and farnesoic acid were determined in conditions where the buffer was Tris-HCL (50 mM, pH 7.5), the reaction temperature was 25° C., and the substrates were 1 mM of S-adenosyl methionine and 100 μM of each JH acid. These activities (the number of substrate molecules changed to reaction product by one molecule of the enzyme in one minute) were 1.80±0.32, 1.65±0.23, 0.79 ±0.06, and 0.48±0.07 (mean±standard deviation n=3), respectively. When a saturated straight chain fatty acid or an unsaturated straight chain fatty acid was used as a substrate, methyl esterification by the enzyme was not observed. Therefore, the enzyme reaction was substrate-specific to juvenile hormone acid.
Compound,molecular activity [1],production of the corresponding active juvenile hormone in the reaction solution [2],molecular activity (number of substrate molecules changed to reaction product by one molecule of the enzyme in one minute) [2]
CC/C(=C\CC/C(C)=C/C(=O)O)CCC1OC1(C)CC (stereo not drawn) [JH I acid],2.67±0.44,confirmed to be produced,1.80±0.32
CC(C)=CCCC(C)=CCCC(C)=CC(=O)O [farnesoic acid],2.3±0.51,confirmed to be produced,0.48±0.07
CC[C@]1(C)O[C@@H]1CC/C(C)=C/CC/C(C)=C/C(=O)O [JH II acid],2.07±0.26,confirmed to be produced,1.65±0.23
C/C(=C\C(=O)O)CC/C=C(\C)CCC1OC1(C)C (stereo not drawn) [JH III acid],1.76±0.13,confirmed to be produced,0.79 ±0.06
